Reference: patent EP3363436A1, “AGENT FOR TREATING PARASITIC WORM DISEASES” (Haas, Helmut, priority 2017, dated 2018)

Tested on: S. mansoni
Experiment: Drug testing on schistosomes in vitro (incubation of cultured worms with the substance, morphological assessment)
Type: cell-based
From the text: Mirazidien für die Infektion von Wasserschnecken (Biomphalaria glabrata, Stamm Puerto Rico) wurden mittels Standardverfahren aus Gewebe (Leber, Darm) von Syrischen Goldhamstern bzw. Mäusen gewonnen, die mit S. mansoni (Liberian strain bzw. Brasilian strain) infiziert worden waren. Hierzu wurde das Gewebe (freundlicherweise zur Verfügung gestellt von Prof. Dr. Grevelding, Universität Gießen bzw. von Dr. Sombetzki, Universität Rostock) mechanisch zerkleinert und die darin enthaltenen Wurmeier mittels Enzymverdau aus dem Gewebeverband herausgelöst. Nach Zugabe von H2O zu dem Gewebspräzipitat schlüpfen aus den Eiern die Mirazidien. Die Infektion erfolgte separat für jede Schnecke mit 4-7 Mirazidien. Da Licht für die Zerkarien der Schlüsselreiz zum Verlassen der Schnecke ist, wurden die Schnecken in der vierten Woche nach Infektion dunkel gestellt, um ein vorzeitiges Ausschwärmen von Zerkarien zu unterbinden.
6-7 Wochen nach Infektion wurden die infizierten Schnecken aus Beispiel 1 in Wasser mittels einer 60-Watt Glühlampe von oben belichtet, da ab diesem Zeitpunkt Zerkarien die infizierten Schnecken in ausreichender Menge verlassen. Während einer Belichtungsdauer von 2-3 Stunden wurden die aufschwimmenden Zerkarien gesammelt. Nach wiederholtem Waschen und Überführen in Medium erfolgte die Transformation der Zerkarien mechanisch nach Standardverfahren. Dazu erfolgten wiederholte Passagen durch eine Emulsionsnadel, an die zwei Spritzen angeschlossen sind. Die durch die Transformation aus den Zerkarien (Gabelschwanzlarven) entstandenen Schistosomula wurden ebenfalls wiederholt in Medium gewaschen und dabei von den abgescherten Schwänzen getrennt.
Die transformierten Schistosomula wurden nach dem von Basch beschriebenen Verfahren kultiviert (Basch (1981), J Parasitol.; 67: 179-185), wobei das Verfahren leicht modifiziert wurde, wie es bei Reimers beschrieben wurde (Reimers et al. (2015), PLoS Negl Trop Dis 9(3): e0003593). […]

Row | SMILES | Verstärkung der Wirkung von Felodipin (Loperamid given together with Felodipin, in vitro) | Abtöten von Schistosomen (in vitro, Schistosomula, juvenile and adult worms, initially 10 µM (Figures 1-2: 10, 20, 40 µM), 24 h exposure then wash-out, assessed at 4 h, 24 h, 48 h, 72 h and 7 days) | morphologische Veränderungen und Schädigung der Würmer (incubation of parasitic worms with Felodipin in vitro)
1 | CN(C)C(=O)C(CCN1CCC(O)(c2ccc(Cl)cc2)CC1)(c1ccccc1)c1ccccc1 [Loperamid, 4-[4-(4-Chlorphenyl)-4-hydroxypiperidin-1-yl]-N,N-dimethyl-2,2-diphenylbutyramid] | verstärkt Loperamid die Wirkung von Felodipin signifikant |  | 
2 | CCOC(=O)C1=C(C)NC(C)=C(C(=O)OC)C1c1cccc(Cl)c1Cl (racemic) [Felodipin] |  | hochwirksam Schistosomen abtöten | erheblichen morphologischen Veränderungen und irreversiblen Schädigung der Würmer
